The results in this text go back to patent US9850225B2, “Compounds useful as immunomodulators” (BRISTOL-MYERS SQUIBB COMPANY, priority 2014, dated 2017).

In the experiment the target is PD-1/PD-L1 interaction (PD-1-Ig / PD-L1-His) (Homo sapiens (Human), UniProt Q9NZQ7). Briefly: PD-1/PD-L1 Homogenous Time-Resolved Fluorescence (HTRF) binding assay. The settings on record: PD-1/PD-L1 HTRF binding assay; value given as range class; read-out: Range or IC50. The text has this: The ability of the compounds of formula (I) to bind to PD-L1 was investigated using a PD-1/PD-L1 Homogenous Time-Resolved Fluorescence (HTRF) binding assay.
Sequence of PD-1/PD-L1 interaction (PD-1-Ig / PD-L1-His) (Q9NZQ7 other isoform, or with tags, fused parts or gaps): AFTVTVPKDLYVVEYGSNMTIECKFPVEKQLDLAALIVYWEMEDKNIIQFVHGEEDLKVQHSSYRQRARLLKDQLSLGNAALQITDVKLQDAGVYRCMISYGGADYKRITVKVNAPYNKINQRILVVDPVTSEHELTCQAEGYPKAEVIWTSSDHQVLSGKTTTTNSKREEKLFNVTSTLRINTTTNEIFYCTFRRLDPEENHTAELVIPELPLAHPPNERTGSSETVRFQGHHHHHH
Homogenous Time-Resolved Fluorescence (HTRF) Binding Assay.
The interaction of PD-1 and PD-L1 can be assessed using soluble, purified preparations of the extracellular domains of the two proteins. The PD-1 and PD-L1 protein extracellular domains were expressed as fusion proteins with detection tags, for PD-1, the tag was the Fc portion of Immunoglobulin (PD-1-Ig) and for PD-L1 it was the 6 histidine motif (PD-L1-His). All binding studies were performed in an HTRF assay buffer consisting of dPBS supplemented with 0.1% […] bovine serum albumin and 0.05% (v/v) Tween-20. For the h/PD-L1-His binding assay, inhibitors were pre-incubated with PD-L1-His (10 nM final) for 15 m in 4 μl of assay buffer, followed by addition of PD-1-Ig (20 nM final) in 1 μl of assay buffer and further incubation for 15 m. HTRF detection was achieved using europium crypate-labeled anti-Ig (1 nM final) and allophycocyanin (APC) labeled anti-His (20 nM final). Antibodies were diluted in HTRF detection buffer and 5 μl was dispensed on top of the binding reaction. […] Additional binding assays were established between the human proteins PD-1-Ig/PD-L2-His (20 & 5 nM, respectively) and CD80-His/PD-L1-Ig (100 & 10 nM, respectively). […]
On the technique in general: Time-resolved FRET reads energy transfer from a long-lived donor to a nearby acceptor.
For the compound `Cc1c(COc2cc(OCc3cccc(C#N)c3)c(CN[C@@H](Cc3cscn3)C(=O)O)cc2Cl)cccc1-c1ccc2c(c1)OCCO2` [Example 1208, (S)-2-((5-chloro-2-((3-cyanobenzyl)oxy)-4-((3-(2,3-dihydrobenzo[b][1,4]dioxin-6-yl)-2-methylbenzyl)oxy)benzyl)amino)-3-(thiazol-4-yl)propanoic acid], the IC50 is 0.6 to 10 nM. The value for `Cc1c(COc2cc(OCc3cccc(C#N)c3)c(CN3CCSC[C@@H]3C(=O)O)cc2Cl)cccc1-c1ccc2c(c1)OCCO2` [Example 1222, (S)-4-(5-chloro-2-((3-cyanobenzyl)oxy)-4-((3-(2,3-dihydrobenzo[b][1,4]dioxin-6-yl)-2-methylbenzyl)oxy)benzyl)thiomorpholine-3-carboxylic acid] was 10 to 100 nM. The value for `Cc1c(COc2cc(OCc3cccc(C#N)c3)c(CN[C@@H](Cn3ncnn3)C(=O)O)cc2Cl)cccc1-c1ccc2c(c1)OCCO2` [Example 1227, (S)-2-((5-chloro-2-((3-cyanobenzyl)oxy)-4-((3-(2,3-dihydrobenzo[b][1,4]dioxin-6-yl)-2-methylbenzyl)oxy)benzyl)amino)-3-(2H-tetrazol-2-yl)propanoic acid] was 100 to 20000 nM; that for `Cc1cc(CNC[C@@H](O)CC(=O)O)c(OCc2ccc(F)c(C#N)c2)cc1OCc1cccc(-c2ccc3c(c2)OCCO3)c1C` [Example 1270, (S)-4-((2-((3-cyano-4-fluorobenzyl)oxy)-4-((3-(2,3-dihydrobenzo[b][1,4]dioxin-6-yl)-2-methylbenzyl)oxy)-5-methylbenzyl)amino)-3-hydroxybutanoic acid] was 0.6 to 10 nM; that for `Cc1c(COc2cc(OCc3cccc(C#N)c3)c(CNC(CN(C)C)C(=O)O)cc2Cl)cccc1-c1ccc2c(c1)OCCO2` (stereo not shown) [Example 1172, 2-((5-chloro-2-((3-cyanobenzyl)oxy)-4-((3-(2,3-dihydrobenzo[b][1,4]dioxin-6-yl)-2-methylbenzyl)oxy)benzyl)amino)-3-(dimethylamino)propanoic acid] was 0.6 to 10 nM. As for `CC(=O)NCCNCc1ccc(OCc2cccc(-c3ccccc3)c2C)cc1OCc1ccc(F)cc1` [Example 1075, N-(2-((2-((4-fluorobenzyl)oxy)-4-((2-methyl-[1,1′-biphenyl]-3-yl)methoxy)benzyl)amino)ethyl)acetamide], the IC50 is 100 to 20000 nM. For the compound `Cc1c(COc2cc(OCc3cncc(C#N)c3)c(CN[C@@H](CCCCN(C)C)C(=O)O)cc2Cl)cccc1-c1ccc2c(c1)OCCO2` [Example 2006, (S)-2-((5-chloro-2-((5-cyanopyridin-3-yl)methoxy)-4-((3-(2,3-dihydrobenzo[b][1,4]dioxin-6-yl)-2-methylbenzyl)oxy)benzyl)amino)-6-(dimethylamino)hexanoic acid], the IC50 lay in the range of 0.6 to 10 nM. Turning to `Cc1c(COc2ccc(CNC(C)(CO)C(=O)O)c(OCc3cccc(C#N)c3)c2)cccc1-c1ccccc1` (stereo not shown) [Example 1014, 2-((2-((3-cyanobenzyl)oxy)-4-((2-methyl-[1,1′-biphenyl]-3-yl)methoxy)benzyl)amino)-3-hydroxy-2-methylpropanoic acid], the IC50 lay in the range of 0.6 to 10 nM. The value for `Cc1c(COc2ccc(CNC[C@@H](O)CC(=O)O)c(OCc3cccc(C#N)c3)c2Cl)cccc1-c1ccc2c(c1)OCCO2` [Example 1240, (S)-4-((3-chloro-2-((3-cyanobenzyl)oxy)-4-((3-(2,3-dihydrobenzo[b][1,4]dioxin-6-yl)-2-methylbenzyl)oxy)benzyl)amino)-3-hydroxybutanoic acid] was 100 to 20000 nM. As for `CC(=O)NCCNCc1ccc(OCc2cccc(-c3ccccc3)c2C)cc1OCc1ccc2nc(C(F)(F)F)cc(Cl)c2c1` [Example 1083, N-(2-((2-((4-chloro-2-(trifluoromethyl)quinolin-6-yl)methoxy)-4-((2-methyl-[1,1′-biphenyl]-3-yl)methoxy)benzyl)amino)ethyl)acetamide], the IC50 was 100 to 20000 nM. Consider `CC(=O)NCCNCc1ccc(OCc2cccc(-c3ccccc3)c2C)cc1OCc1ccccc1` [Example 1024, N-(2-((2-(benzyloxy)-4-((2-methyl-[1,1′-biphenyl]-3-yl)methoxy)benzyl)amino)ethyl)acetamide], for which the 50% inhibitory concentration (IC50) lay in the range of 100 to 20000 nM. For the compound `Cc1c(COc2cc(OCc3cccc(S(C)(=O)=O)c3)c(C=O)cc2Cl)cccc1-c1ccc2c(c1)OCCO2` [Example 3020, 5-chloro-4-((3-(2,3-dihydrobenzo[b][1,4]dioxin-6-yl)-2-methylbenzyl)oxy)-2-((3-(methylsulfonyl)benzyl)oxy)benzaldehyde], the IC50 was in the range of 100 to 20000 nM.

For `Cc1cc(CN[C@H](CO)C(=O)O)c(OCc2cncc(C#N)c2)cc1OCc1cccc(-c2ccc3c(c2)OCCO3)c1Cl` [Example 1153, (R)-2-(4-(2-chloro-3-(2,3-dihydrobenzo[b][1,4]dioxin-6-yl)benzyloxy)-2-((5-cyanopyridin-3-yl)methoxy)-5-methylbenzylamino)-3-hydroxypropanoic acid], the IC50 lay within 0.6 to 10 nM. With `C[C@@](CO)(NCc1ccc(OCc2cccc(-c3ccc4c(c3)OCCO4)c2Cl)cc1OCc1cccc(C#N)c1)C(=O)O` [Example 1149, (S)-2-(4-(2-chloro-3-(2,3-dihydrobenzo[b][1,4]dioxin-6-yl)benzyloxy)-2-(3-cyanobenzyloxy)benzylamino)-3-hydroxy-2-methylpropanoic acid], the IC50 lay within 0.6 to 10 nM. In the case of `CC(=O)NCCNCc1ccc(OCc2cccc(-c3ccccc3)c2C)cc1OCc1ccc(F)c(C#N)c1` [Example 1114, N-(2-((2-((3-cyano-4-fluorobenzyl)oxy)-4-((2-methyl-[1,1′-biphenyl]-3-yl)methoxy)benzyl)amino)ethyl)acetamide], the IC50 was in the range of 10 to 100 nM.

With `Cc1c(COc2ccc(CN[C@](C)(CO)C(=O)O)c(OCc3cc(C#N)ccn3)c2)cccc1-c1ccc2c(c1)OCCO2` [Example 1131, (R)-2-(2-((4-cyanopyridin-2-yl)methoxy)-4-(3-(2,3-dihydrobenzo[b][1,4]dioxin-6-yl)-2-methylbenzyloxy)benzylamino)-3-hydroxy-2-methylpropanoic acid], the IC50 lay within 0.6 to 10 nM. Consider `Cc1c(COc2ccc(CNC[C@@H](O)CC(=O)O)c(OCc3cncc(C#N)c3)c2)cccc1-c1ccccc1` [Example 1328, (S)-4-((2-((5-cyanopyridin-3-yl)methoxy)-4-((2-methyl-[1,1′-biphenyl]-3-yl)methoxy)benzyl)amino)-3-hydroxybutanoic acid], for which the IC50 was in the range of 0.6 to 10 nM. As to `N#Cc1cccc(COc2cc(OCc3cccc(-c4ccc5c(c4)OCCO5)c3C#N)c(Br)cc2CN[C@@H](CO)C(=O)O)c1` [Example 1312, (S)-2-((5-bromo-4-((2-cyano-3-(2,3-dihydrobenzo[b][1,4]dioxin-6-yl)benzyl)oxy)-2-((3-cyanobenzyl)oxy)benzyl)amino)-3-hydroxypropanoic acid], the IC50 lay within 0.6 to 10 nM. Take `Cc1c(COc2ccc(CN[C@](C)(CO)C(=O)O)c(OCc3cccc(C(N)=O)c3)c2)cccc1-c1ccc2c(c1)OCCO2` [Example 1326, (R)-2-((2-((3-carbamoylbenzyl)oxy)-4-((3-(2,3-dihydrobenzo[b][1,4]dioxin-6-yl)-2-methylbenzyl)oxy)benzyl)amino)-3-hydroxy-2-methylpropanoic acid]: the IC50 is 0.6 to 10 nM.

In general, IC50 refers to the midpoint of a concentration-inhibition curve.
